From patent US10821115B2, “Compounds that inhibit Mcl-1 protein” (priority 2017, dated 2020)
Like-named read-outs stand apart in the source and are kept apart here.

System: human multiple myeloma cell line, OPM-2
Experiment: Cell viability assay (OPM-2 10 FBS), CellTiter-Glo
Format: cell-based
Outline: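 Cells were seeded at 3000 cells/well in RPMI 1640 with 10% FBS and exposed to serially diluted compounds for 16 h at 37 °C, 5% CO2.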

[1] = Homo sapiens, OPM-2, 16 h, read-out: OPM-2 10% FBS IC50 IP, OPM-2 cells, 10% FBS, 16 h incubation
[2] = read-out: OPM-2 10% FBS IC50 IP, OPM-2 cells, 10% FBS, 16 h incubation

Row | SMILES | IC50 [1] | IC50 [2] | further results
1 | CC(C)N(CCO)C[C@]1(O)/C=C/C[C@H](C)[C@@H](C)S(=O)(=O)NC(=O)c2ccc3c(c2)N(C[C@@H]2CC[C@H]21)C[C@@]1(CCCc2cc(Cl)ccc21)CO3 [Example 126, (1 S,3′R,6′R,7′S,8′E,11′S,12′R)-6-chloro-7′-hydroxy-7′-(((2-hydroxyethyl)(1-methylethyl)amino)methyl)-11′,12′-dimethyl-3,4-dihydro-2H, 15′H-spiro[naphthalene-1,22′-[20]oxa[13]thia[1,14]diazatetracyclo[14.7.2.0-3,6˜.0˜19,24˜]pentacosa[8,16,18,24]tetraen]-15′-one 13′,13′-dioxide] | 0.9 µM |  | 
2 | CO[C@]1(CN2CCN3CCS(=O)(=O)C[C@@H]3C2)/C=C/C[C@H](C)[C@@H](C)S(=O)(=O)NC(=O)c2ccc3c(c2)N(C[C@@H]2CC[C@H]21)C[C@@]1(CCCc2cc(Cl)ccc21)CO3 [Example 215] |  | 0.107 µM | 
3 | CCO[C@]1(CN2CCN3CCOC[C@@H]3C2)CCC[C@H](C)[C@@H](CCOC)S(=O)(=O)NC(=O)c2ccc3c(c2)N(C[C@@H]2CC[C@H]21)C[C@@]1(CCCc2ccccc21)CO3 [Example 517, (1S,3′R,6′R,7′R,11′S,12′R)-7′-ethoxy-7′-((9aS)-hexahydropyrazino[2,1-c][1,4]oxazin-8(1H)-ylmethyl)-12′-(2-methoxyethyl)-11′-methyl-3,4-dihydro-2H, 15′H-spiro[naphthalene-1,22′-[20]oxa[13]thia[1,14]diazatetracyclo[14.7.2.0-3,6˜.0˜19,24˜]pentacosa[16,18,24]trien]-15′-one 13′,13′-dioxide] |  | 0.252 µM | 
4 | CO[C@@]1(CC(N)=O)/C=C/C[C@H](C)[C@@H](C)S(=O)(=O)NC(=O)c2ccc3c(c2)N(C[C@@H]2CC[C@H]21)C[C@@]1(CCCc2cc(Cl)ccc21)CO3 [Example 100589, 2-((1S,3′R,6′R,7′S,8′E,11′S,12′R)-6-chloro-7′-methoxy-11′,12′-dimethyl-13′,13′-dioxido-15′-oxo-3,4-dihydro-2H-spiro[naphthalene-1,22′-[20]oxa[13]thia[1,14]diazatetracyclo [14.7.2.0~3,6~.0~19,24~]pentacosa[8,16,18,24]tetraen]-7′-yl)acetamide] |  |  | IC50 (Homo sapiens, OPM-2, 16 h, read-out: OPM-2 10% FBS IC50 IP, OPM-2 cells, 10% FBS, 16 h, CellTiter-Glo): 3.33 µM
5 | C[C@@H]1[C@@H](C)C/C=C/[C@@](O)(CNC(C)(C)C)[C@@H]2CC[C@H]2CN2C[C@@]3(CCCc4cc(Cl)ccc43)COc3ccc(cc32)C(=O)NS1(=O)=O [Example 125, (1S,3′R,6′R,7′S,8′E,11′S,12′R)-7′-((tert-butylamino)methyl)-6-chloro-7′-hydroxy-11′,12′-dimethyl-3,4-dihydro-2H,15′H-spiro[naphthalene-1,22′-[20]oxa[13]thia[1,14]diazatetracyclo[14.7.2.0-3,6˜.0˜19,24˜]pentacosa[8,16,18,24]tetraen]-15′-one 13′,13′-dioxide] | 1.48 µM |  | 
6 | CO[C@@]1(CN2CCN3CCCC[C@@H]3C2)/C=C/C[C@H](C)[C@@H](C)S(=O)(=O)NC(=O)c2ccc3c(c2)N(C[C@@H]2CC[C@H]21)C[C@@]1(CCCc2cc(Cl)ccc21)CO3 [Example 197, (1S,3′R,6′R,7′S,8′E,11′S,12′R)-6-chloro-7′-methoxy-11′,12′-dimethyl-7′-((9aR)-octahydro-2H-pyrido[1,2-a]pyrazin-2-ylmethyl)-3,4-dihydro-2H,15′H-spiro[naphthalene-1,22′-[20]oxa[13]thia[1,14]diazatetracyclo [14.7.2.0~3,6~.0~19,24~]pentacosa[8,16,18,24]tetraen]-15′-one 13′,13′-dioxide] | 0.129 µM |  | 
7 | CCO[C@@]1(CN2CCN3CCCC[C@@H]3C2)/C=C/C[C@H](C)[C@@H](CCOC)S(=O)(=O)NC(=O)c2ccc3c(n2)N(C[C@@H]2CC[C@H]21)C[C@@]1(CCCc2cc(Cl)ccc21)CO3 [Example 370, (1S,3′R,6′R,7′S,8′E,11′S,12′R)-6-chloro-7′-ethoxy-12′-(2-methoxyethyl)-11′-methyl-7′-((9aR)-octahydro-2H-pyrido[1,2-a]pyrazin-2-ylmethyl)-3,4-dihydro-2H,15′H-spiro[naphthalene-1,22′-[20]oxa[13]thia[1,14,25]triazatetracyclo [14.7.2.0~3,6~.0~19,24~]pentacosa[8,16,18,24]tetraen]-15′-one 13′,13′-dioxide] | 0.369 µM |  | 
8 | CCO[C@]1(CN2CCN(C3COC3)CC2)/C=C/C[C@H](C)[C@@H](CCOC)S(=O)(=O)NC(=O)c2ccc3c(c2)N(C[C@@H]2CC[C@H]21)C[C@@]1(CCCc2cc(Cl)ccc21)CO3 [Example 14, (1S,3′R,6′R,7′R,8′E,11′S,12′R)-6-chloro-7′-ethoxy-12′-(2-methoxyethyl)-11′-methyl-7′-((4-(3-oxetanyl)-1-piperazinyl)methyl)-3,4-dihydro-2H,15′H-spiro[naphthalene-1,22′-[20]oxa[13]thia[1,14]diazatetracyclo[14.7.2.0-3,6˜.0˜19,24˜]pentacosa[8,16,18,24]tetraen]-15′-one 13′,13′-dioxide] | 0.059 µM |  | 
9 | CO[C@@]1(CN2CCN3CCN(C(C)=O)C[C@@H]3C2)/C=C/C[C@H](C)[C@@H](C)S(=O)(=O)NC(=O)c2ccc3c(c2)N(C[C@@H]2CC[C@H]21)C[C@@]1(CCCc2cc(Cl)ccc21)CO3 (single isomer, unassigned) [Example 225] |  | 0.28 µM | 
10 | C[C@@H]1[C@@H](C)C/C=C/[C@]2(CN(Cc3ccccc3)CCO2)[C@@H]2CC[C@H]2CN2C[C@@]3(CCCc4cc(Cl)ccc43)COc3ccc(cc32)C(=O)NS1(=O)=O [Example 138, (1 S,3′R,6′R,7′R,8′E, 11′S,12′R)-4″-benzyl-6-chloro-11′,12′-dimethyl-3,4-dihydro-2H,15′H-dispiro[naphthalene-1,22′-[20]oxa[13]thia[1,14]diazatetracyclo[14.7.2.0-3,6˜.0˜19,24˜]pentacosa[8,16,18,24]tetraene-7′,2″-[1,4]oxazinan]-15′-one 13′,13′-dioxide] | > 33.3 µM |  | 
11 | CO[C@]1(C(=O)N(C)C)/C=C/C[C@H](C)[C@@H](C)S(=O)(=O)NC(=O)c2ccc3c(c2)N(C[C@@H]2CC[C@H]21)C[C@@]1(CCCc2cc(Cl)ccc21)CO3 [Example 177, (1S,3′R,6′R,7′R,8′E,11′S,12′R)-6-chloro-7′-methoxy-N,N, 11′,12′-tetramethyl-15′-oxo-3,4-dihydro-2H-spiro[naphthalene-1,22′-[20]oxa[13]thia[1,14]diazatetracyclo[14.7.2.0-3,6˜.0˜19,24˜]pentacosa[8,16,18,24]tetraene]-7′-carboxamide 13′,13′-dioxide] |  | 0.615 µM | 
12 | C[C@@H]1[C@@H](C)CCC[C@@](O)(CC(=O)N2CCC2)[C@@H]2CC[C@H]2CN2C[C@@]3(CCCc4cc(Cl)ccc43)COc3ccc(cc32)C(=O)NS1(=O)=O [Example 100144, (1S,3′R,6′R,7′R,11′S,12′R)-7′-(2-(1-azetidinyl)-2-oxoethyl)-6-chloro-7′-hydroxy-11′,12′-dimethyl-3,4-dihydro-2H,15′H-spiro[naphthalene-1,22′-[20]oxa[13]thia[1,14]diazatetracyclo [14.7.2.0~3,6~.0~19,24~]pentacosa[16,18,24]trien]-15′-one 13′,13′-dioxide] |  |  | IC50 (read-out: OPM-2 10% FBS IC50 IP, OPM-2 cells, 10% FBS, 16 h, CellTiter-Glo): 0.208 µM
